A short description of the data set: mn = molality of the nth substance listed, in mol/kg. Conditions: 298.2 K, 101.3 kPa, Liquid, Alternating current cell with electrodes.

Numbers after ± are expanded uncertainties.

`CCCCCCCCCCCCOS(=O)(=O)[O-].[Na+]` [sodium dodecyl sulfate] + O: the electrical conductivity by setting is: (m1 = 0.01003) 0.0586 ± 0.001 S/m; (m1 = 0.01504) 0.0684 ± 0.001 S/m; (m1 = 0.02006) 0.0816 ± 0.001 S/m; (m1 = 0.02507) 0.097 ± 0.01 S/m; (m1 = 0.03009) 0.106 ± 0.01 S/m.
